Patent US20080113908A1, “Use of CRF receptor agonists for the treatment or Prophylaxis of diseases, for example Neurodegenerative diseases” (SmithKline Beecham plc, priority 2000, published 2008)
Like-named read-outs stand apart in the source and are kept apart here. Ends that are not written are not given here.

Experiments:
[1] = test system: primary cerebellar granule neurones; experiment: Assay 2: effect of CP154,526 on agonist protection against LY294002 neurotoxicity; format: cell-based, rat; details: LY 294002 75 μM; for effect of CP 154,526 on neuroprotective effect of CRF receptor agonist (FIGS. 2B-D): urocortin, urotensin 1 or sauvagine 10 nM
Method: Assay 2: This assay measures the effects of CP154,526, a selective CRF receptor-1 antagonist, on the protective effects of a putative CRF receptor agonist against neurotoxicity induced by LY294002 in primary cerebellar granule neurones. The assay is identical to Assay 1 except that after shifting the granule neurone cultures to the medium, the cultures were incubated with CP154,526 at concentrations varying from 3 nM to 1000 nM for 30 minutes prior to simultaneous addition of the putative CRF receptor agonist (10 nM) and LY 294002 (75 μM). 48 hours later neuronal survival was measured as in Assay 1.
The columns from left to right represent: (1) control: cells cultured with CRF (10 nM) and LY 294002 (75 μM); (2 to 7) cells cultured with CRF (10 nM), LY 294002 (75 μM) and CP 154,526 at concentrations of 3 nM, 10 nM, 30 nM, 100 nM, 300 nM and 1000 nM respectively; and (8) cells cultured without agonist (CRF) but with LY 294002 (75 μM).

[2] = test system: hippocampal neurones; experiment: Amyloid-β peptide (25-35) toxicity, survival by counting viable neurons (FIGS. 8, 9); format: cell-based; details: for neuronal death: 10-20 μM
Method: In order to test whether CRF receptor agonists protect neurones from death caused by Aβ, the following experiment was conducted (FIGS. 8 and 9). Hippocampal neurons from embryonic day 18 rat were cultured in serum-free medium (neurobasal/B27) for 9 days. The culture methods are described on page 48 of S. D. Skaper et al., J. Neurochem., 2001, 76, 47-55. Cells were then treated with amyloid-β peptide (fragment 25-35) (Sigma, cat. no. A-4559, sequence Gly-Ser-Asn-Lys-Gly-Ala-Ile-Ile-Gly-Leu-Met) at 10 μM plus the indicated CRF receptor agonist at the indicated concentration, in the same culture medium. […] Cell survival was assessed after 3 days, by fixing the cultures and counting microscopically viable neurons. Values are expressed relative to numbers of surviving neurons in untreated cultures (=100).

[3] = test system: cerebellar granule neurones; experiment: Assay 3: intracellular cyclic AMP enzyme immunoassay; format: cell-based, rat; details: agonist 0 to 30 nM, 15 min, 0.5 mM IBMX
Method: Assay 3: The production of cAMP by the CRF receptor agonist peptides CRF, urotensin 1, urocortin and sauvagine was measured as follows. This assay can be used analogously for any putative CRF receptor agonists including non-peptide agonists.
Intracellular cyclic AMP was measured with a cAMP 2-site enzyme immunoassay system (trade mark BIOTRAK, commercially available from Amersham Pharmacia Biotech, PO Box 164, Rainham, Essex RM13 8JZ, United Kingdom, Amersham catalogue number RPN225), based upon the use of a sensitive and highly specific capture antibody for cyclic AMP:
Cerebellar granule neurones were seeded in polylysine-coated […] plates, 3.5×10^5 cells per 48-well, in Basal medium Eagle's containing 10% fetal calf serum, 25 mM KCl, and antibiotics. At 8-9 days in vitro, granule neurone cultures were shifted to serum-free plating medium (0.4 ml) with 0.5 mM IBMX (to inhibit the breakdown of cyclic AMP) for 15 min (37° C.). Wells then received 0.1 ml of test peptide (5× final concentration). Generally 1 μM is the preferable final concentration for a putative CRF agonist under test, though different (e.g. lower) concentrations can be used as shown for the peptide agonists in FIG. 3. Incubation was continued for 15 min. Test medium was removed and the plate placed on dry ice, and stored at −140° C. Cyclic AMP analysis was performed the following day.
Cells were then lysed with the reagent provided with the BIOTRAK kit. Intracellular content of cyclic AMP in the lysates was assayed following the manufacturer's instructions. A standard curve was constructed using the cyclic AMP calibration provided, with the quantity of bound cyclic AMP being inversely proportional to the amount of second (chromogenic) antibody bound to the reaction wells. The colour product was read with an ELISA plate reader, and was a function of the amount of cyclic AMP in the unknown sample.

[4] = test system: cerebellar granule neurones; format: cell-based, rat; details: 48 h, MTT, sham-treated = 100%
Method: Cerebellar granule neurones were used in the examples to test neuroprotection by CRF receptor agonists. Cerebellar granule neurones (CGNs) undergo apoptosis during the first few weeks of postnatal life, and in culture require mildly depolarising concentrations of KCl (25 mM) for their survival and maturation (S. R: D'Mello et al., Proc. Natl. Acad. Sci. USA 90, 10989-10993, 1993). The growth signal provided by KCl depends upon activation of the phosphatidylinositol 3-kinase (PI 3-kinase) pathway, and pharmacological inhibition of PI 3-kinase in differentiated granule neurones leads to apoptotic death in the CGNs (T. M. Miller et al., J. Biol. Chem., 272, 9847-9853, 1997). Thus, cultured CGNs represent a suitable model to study mechanisms of programmed cell death, and to identify putative neuroprotective signalling pathways.
Assay 1: Cerebellar granule neurones prepared from postnatal day 8 Sprague Dawley rat pups were used for experiments on death induced by inhibition of PI 3-kinase. General culture methods are described in S. D. Skaper et al. in Methods in Neurosciences, Vol. 2 (Conn P. M., ed), pp. 17-33. Academic Press, San Diego, 1990. At 8-9 days in vitro (DIV), granule neurone cultures were shifted to phenol red-free Dulbecco's modified Eagle's medium lacking serum, and containing 0.05% bovine serum albumin and 25 mM KCl. Death was induced by addition of the PI 3-kinase inhibitor LY 294002 (75 μM). CRF or CRF agonist peptides (urotensin 1, urocortin, sauvagine) were added at different concentrations (from 0.3nM to 300 nM or 1000 nM) together with LY 294002. Forty-eight hours later neuronal survival was quantified by a colorimetric reaction MTT. Absolute MTT values obtained were normalised for small differences in interexperiment plating densities by scaling to the mean of sham-treated sister cultures (defined as 100%).
Results are shown in Table 1 below and in graphical form in FIG. 1, which show the percentage mean neuronal survival (and standard deviation), when in the presence of the relevant CRF receptor agonists and LY 294002, as a function of agonist concentration. […] Urotensin 1, urocortin and sauvagine were also neuroprotective albeit with lower potency (<1 μM).

[5] = molecular target: CRF receptor-1 (Type 1 CRF receptor) on primary rat neurones (rat, UniProt P35353); experiment: cell-based or functional assay
[6] = agonist 0.3 nM with LY 294002 75 μM
[7] = agonist 1 nM with LY 294002 75 μM
[8] = agonist 3 nM with LY 294002 75 μM
[9] = agonist 10 nM with LY 294002 75 μM
[10] = agonist 30 nM with LY 294002 75 μM
[11] = agonist 100 nM with LY 294002 75 μM
[12] = agonist 300 nM with LY 294002 75 μM

## CCCCN(CC)c1nc(C)nc2c1c(C)cn2-c1c(C)cc(C)cc1C [CP 154,526]
[1]; CP 154,526 300 nM
  effect of CP 154,526 on neuroprotective effect of CRF receptor agonist (FIGS. 2B-D): partial reductions in neuroprotection
[1]; CP 154,526 1000 nM
  effect of CP 154,526 on neuroprotective effect of CRF receptor agonist (FIGS. 2B-D): remove most or all of the neuroprotective effect
[1]; CP 154,526 as low as 300 nM, CRF 10 nM
  effect of CP 154,526 on neuroprotective effect of CRF (FIG. 2A): remove almost completely the neuroprotective effect of 10 nM CRF
[2]; CP-154,526 1 μM with CRF (30 nM) and Aβ(25-35) 10 μM, 3 days
  effect of CP-154,526 on CRF's neuroprotection (FIG. 8): cancels all of CRF's neuroprotection

## CC[C@H](C)[C@H](NC(=O)[C@@H](NC(=O)[C@H](CC(=O)O)NC(=O)[C@H](CC(C)C)NC(=O)[C@H](CC(C)C)NC(=O)[C@H](CC(C)C)NC(=O)[C@H](CCCNC(=N)N)NC(=O)[C@H](CC(N)=O)NC(=O)[C@H](CC(N)=O)NC(=O)[C@H](C)NC(=O)[C@H](C)NC(=O)[C@H](CCC(N)=O)NC(=O)[C@H](CCC(N)=O)NC(=O)[C@H](CCCCN)NC(=O)[C@H](CCC(=O)O)NC(=O)[C@H](CCCCN)NC(=O)[C@H](CCC(=O)O)NC(=O)[C@H](CCC(N)=O)NC(=O)[C@H](CCCCN)NC(=O)[C@H](CCC(=O)O)NC(=O)[C@@H](NC(=O)[C@H](CCC(=O)O)NC(=O)[C@@H](NC(=O)[C@H](CCSC)NC(=O)[C@H](CCCCN)NC(=O)[C@H](CCCNC(=N)N)NC(=O)[C@H](CC(C)C)NC(=O)[C@H](CC(C)C)NC(=O)[C@H](CCC(=O)O)NC(=O)[C@H](CC(C)C)NC(=O)[C@H](CO)NC(=O)[C@H](CC(C)C)NC(=O)[C@H](CC(=O)O)NC(=O)[C@@H](NC(=O)[C@H](CO)NC(=O)[C@@H](NC(=O)[C@@H]1CCCN1C(=O)[C@@H]1CCCN1C(=O)CNC(=O)[C@@H]1CCC(=O)N1)[C@@H](C)CC)[C@@H](C)CC)[C@@H](C)CC)[C@@H](C)CC)[C@@H](C)O)C(N)=O [Sauvagine]
[3]
  cAMP synthesis induced by agonist (FIG. 3): cAMP production increased with agonist concentration
[4]; [6]
  Mean survival %: 49.33%
[4]; [7]
  Mean survival %: 66.5%
[4]; [8]
  Mean survival %: 76.33%
[4]; [9]
  Mean survival %: 80.67%
[4]; [10]
  Mean survival %: 78.67%
[4]; [11]
  Mean survival %: 77.33%
[4]; [12]
  Mean survival %: 78.33%

## DDPPLSIDLTFHLLRTLLELARTQSQRERAEQNRIIFDSV [Urocortin, Urocortin (rat, Sigma Cat. no. U-6631), CRF receptor agonist peptide]
[3]
  cAMP synthesis induced by agonist (FIG. 3): cAMP production increased with agonist concentration
[4]; [6]
  Mean survival %: 50.67%
[4]; [7]
  Mean survival %: 61.33%
[4]; [8]
  Mean survival %: 69.33%
[4]; [9]
  Mean survival %: 77.33%
[4]; [10]
  Mean survival %: 80.67%
[4]; [11]
  Mean survival %: 75%
[4]; [12]
  Mean survival %: 84%

## GSNKGAIIGLM [Aβ, Gly-Ser-Asn-Lys-Gly-Ala-Ile-Ile-Gly-Leu-Met]
[2]; after 2-3 days
  neuronal death: cell death was visible
[2]; after 1 day of exposure
  neuronal death: no visible neuronal death

## MLGIIAGKNSG [reverse β-amyloid sequence (35-25)]
[2]; 20 μM, results not shown
  neurotoxicity of peptide: not to be neurotoxic

## SQEPPISLDLTFHLLREVLEMTKADQLAQQAHNNRKLLDIA-NH2 [Rat CRF (corticotropin-releasing factor), Sigma catalogue no. C-3042]
[5]
  EC50 of neuroprotection of cerebellar granule neurones against LY 294002 (Assay 1): ~0.01 µM

## DDPPLSIDLTFHLLRTLLELARTQSQRERAEQNRIIFDSV-NH2 [Urocortin (rat, Sigma Cat. no. U-6631)]
[5]
  potency of neuroprotection of cerebellar granule neurones against LY 294002 (Assay 1): < 1 µM

## NDDPPISIDLTFHLLRNMIEMARIENEREQAGLNRKYLDEV-NH2 [Urotensin 1 (teleost fish, Sigma cat. no. U-7253)]
[5]
  potency of neuroprotection of cerebellar granule neurones against LY 294002 (Assay 1): < 1 µM
